{"source": "paper PMC6934184", "about": "“Selective DNA-PKcs inhibition extends the therapeutic index of localized radiotherapy and chemotherapy” (The Journal of Clinical Investigation, 2019)", "molecular_target": "T1, PRKCE (PKC epsilon) (Homo sapiens, UniProt Q02156)", "T1 construct": "purchased Thermo Fisher Scientific (Life Technologies) SelectScreen", "T1 sequence (Q02156 whole entry)": "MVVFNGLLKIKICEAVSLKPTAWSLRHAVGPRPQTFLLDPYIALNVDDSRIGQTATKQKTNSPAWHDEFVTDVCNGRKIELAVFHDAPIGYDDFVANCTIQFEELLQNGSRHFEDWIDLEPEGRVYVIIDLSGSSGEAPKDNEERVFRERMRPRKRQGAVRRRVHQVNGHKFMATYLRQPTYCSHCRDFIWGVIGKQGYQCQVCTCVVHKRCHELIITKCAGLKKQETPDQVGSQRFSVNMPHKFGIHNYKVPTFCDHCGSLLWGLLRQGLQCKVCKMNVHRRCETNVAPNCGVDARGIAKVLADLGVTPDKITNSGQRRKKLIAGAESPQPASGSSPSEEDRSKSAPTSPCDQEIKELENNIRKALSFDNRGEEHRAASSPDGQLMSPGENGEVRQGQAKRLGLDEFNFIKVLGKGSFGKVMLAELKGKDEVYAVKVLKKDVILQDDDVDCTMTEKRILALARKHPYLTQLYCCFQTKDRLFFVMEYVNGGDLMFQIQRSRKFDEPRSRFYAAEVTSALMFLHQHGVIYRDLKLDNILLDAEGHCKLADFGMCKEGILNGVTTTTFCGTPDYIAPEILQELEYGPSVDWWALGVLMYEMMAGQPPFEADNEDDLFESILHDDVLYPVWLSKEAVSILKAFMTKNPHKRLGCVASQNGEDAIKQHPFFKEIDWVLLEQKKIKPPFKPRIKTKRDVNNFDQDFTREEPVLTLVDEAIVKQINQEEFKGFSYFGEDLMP", "assay": "SelectScreen Z'LYTE", "type": "biochemical", "procedure,_shortened": "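Percent values come from Thermo SelectScreen profiling of NU5455, combining activity and binding assays. CSF1R was run in Z'LYTE format at Km app ATP, and CAMK1 in Adapta format with ATP listed at 10.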", "data": [{"smiles": "CN(C(=O)CN1CCOCC1)c1ccc2sc3c(-c4cccc5c(=O)cc(N6CC7CCC(C6)O7)oc45)cccc3c2c1", "note": "[NU5455]", "values": [{"measurement": "inhibition at 1 µM", "result": -4.9, "unit": "%"}]}]}
